Data reported in PubChem BioAssay (NCI).
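Grown in 96-well plates, cells were treated for 48 hours with each compound at five concentrations. Insufficient inhibition: endpoint recorded as highest concentration tested. GI50 marks 50% less growth. TGI is the concentration that stops growth completely.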

What was measured:
Test in all cases: NCI tumour cell line growth inhibition, 48 h
UACC-257 melanoma = system: UACC-257 melanoma
IGROV1 ovarian = system: IGROV1 ovarian
A498 renal = system: A498 renal
HOP-92 NSCLC = system: HOP-92 NSCLC
HCT-116 colon = system: HCT-116 colon
HOP-62 NSCLC = system: HOP-62 NSCLC
COLO 205 colon = system: COLO 205 colon
HT29 colon = system: HT29 colon
DU-145 prostate = system: DU-145 prostate
SW-620 colon = system: SW-620 colon

SMILES	TGI (UACC-257 melanoma)	TGI (IGROV1 ovarian)	TGI (A498 renal)	TGI (HOP-92 NSCLC)	TGI (HCT-116 colon)	TGI (HOP-62 NSCLC)	TGI (COLO 205 colon)	TGI (HT29 colon)	TGI (DU-145 prostate)	TGI (SW-620 colon)	GI50 (UACC-257 melanoma)	GI50 (IGROV1 ovarian)	GI50 (A498 renal)	GI50 (HOP-92 NSCLC)	GI50 (HCT-116 colon)	GI50 (HOP-62 NSCLC)	GI50 (COLO 205 colon)	GI50 (HT29 colon)	GI50 (DU-145 prostate)
CCC(C)C1(O)OC2CC3(C)OC(=CC3=O)/C(C)=C\C3OC(=O)C1(C)C32 (centres undefined)	45.7 µM	53.5 µM	81.9 µM	31.3 µM	47.2 µM	> 100 µM	21 µM	34.3 µM	17 µM	–	–	–	–	–	–	–	–	–	–
Nc1nc(SCCC/C=C/I)nc2c1ncn2C1OC(CO)C(O)C1O (centres undefined)	> 202 µM	> 202 µM	> 202 µM	> 202 µM	> 202 µM	> 202 µM	> 202 µM	> 202 µM	–	> 202 µM	–	–	–	–	–	–	–	–	–
Cc1nnc2sc(N/N=C/c3ccccc3)nn12	> 100 µM	> 100 µM	> 100 µM	–	> 100 µM	> 100 µM	> 100 µM	> 100 µM	> 100 µM	> 100 µM	–	–	–	–	–	–	–	–	–
O=C(O)/C=C/C(=O)O	> 100 µM	> 100 µM	–	> 100 µM	> 100 µM	> 100 µM	> 100 µM	> 100 µM	> 100 µM	> 100 µM	–	–	–	–	–	–	–	–	–
O=C(O)c1ccc(Nc2nc3ccccc3nc2C(=O)O)cc1	> 100 µM	> 100 µM	–	> 100 µM	> 100 µM	> 100 µM	> 100 µM	> 100 µM	> 100 µM	–	–	–	–	–	–	–	–	–	–
CC1CCC2(CC1)N=C1CCC(C)CC1C1(CCC(C)CC1)N2 (centres undefined)	> 100 µM	> 100 µM	> 100 µM	> 100 µM	> 100 µM	–	> 100 µM	> 100 µM	> 100 µM	> 100 µM	–	–	–	–	–	–	–	–	–
NC(=O)CS(=O)CC(N)C(=O)O (centres undefined)	> 100 µM	> 100 µM	> 100 µM	> 100 µM	> 100 µM	> 100 µM	–	> 100 µM	> 100 µM	> 100 µM	–	–	–	–	–	–	–	–	–
Cc1n(CC(=O)c2ccccc2)nc2sc(N)n[n+]12	> 100 µM	> 100 µM	> 100 µM	–	> 100 µM	> 100 µM	> 100 µM	> 100 µM	> 100 µM	> 100 µM	–	–	–	–	–	–	–	–	–
COc1ccc2c(c1)-c1nn(CCN(C)C)c3ccc(C(=O)NCCCN(C)CCCNC(=O)c4ccc5c6c(nn5CCN(C)C)-c5cc(OC)ccc5Nc46)c(c13)N2	0.614 µM	1.47 µM	0.633 µM	–	1.74 µM	1.32 µM	0.224 µM	1.74 µM	0.952 µM	1.54 µM	–	–	–	–	–	–	–	–	–
CCOC(=O)[C@H]1Nc2ccc(Cl)cc2[C@H]2c3ccccc3O[C@H]21	> 100 µM	> 100 µM	–	–	> 100 µM	> 100 µM	> 100 µM	> 100 µM	–	> 100 µM	–	–	–	–	–	–	–	–	–
OCCO[P+]1(OCCO)n2c3ccc2C(c2ccccc2)=C2C=CC(=N2)C(c2ccccc2)=c2ccc(n21)=C(c1ccccc1)C1=NC(=C3c2ccccc2)C=C1	0.0545 µM	–	1.49 µM	0.399 µM	0.203 µM	1.72 µM	0.0651 µM	3.36 µM	1.74 µM	1.09 µM	–	–	–	–	–	–	–	–	–
COC(=O)c1ccccc1CC(Cc1ccccc1)C(=O)OC (centres undefined)	> 100 µM	> 100 µM	> 100 µM	–	> 100 µM	> 100 µM	> 100 µM	> 100 µM	> 100 µM	> 100 µM	–	–	–	–	–	–	–	–	–
CC(C)CCC[C@@H](C)[C@H]1CCC2C3=CCC4C(=O)C=CC(=O)C4C3CC[C@@]21C (some centres undefined)	–	0.719 µM	1.14 µM	0.67 µM	1.03 µM	> 100 µM	0.183 µM	> 100 µM	> 100 µM	–	0.372 µM	0.26 µM	0.301 µM	0.135 µM	0.0551 µM	0.552 µM	0.0545 µM	0.839 µM	0.507 µM
O=C(NN1C(=O)C=CC1=O)c1ccccc1Nc1ccccc1C(=O)NN1C(=O)C=CC1=O	> 100 µM	> 100 µM	–	> 100 µM	> 100 µM	> 100 µM	> 100 µM	> 100 µM	> 100 µM	> 100 µM	–	–	–	–	–	–	–	–	–
Clc1ncnc2c1ncn2CCCCCCCCCCCCn1cnc2c(Cl)ncnc21	11.9 µM	15.7 µM	24.6 µM	19.4 µM	24.8 µM	33 µM	29.1 µM	21.5 µM	–	60.8 µM	–	–	–	–	–	–	–	–	–
COc1ccc(C(O)/C(=C/n2ccnc2)c2ccccc2)cc1OC (centres undefined)	> 100 µM	> 100 µM	> 100 µM	> 100 µM	> 100 µM	> 100 µM	> 100 µM	> 100 µM	–	> 100 µM	–	–	–	–	–	–	–	–	–
CCCCCCOc1ccc(NC2=C(Cl)C(=O)c3ncccc3C2=O)cc1	4.54 µM	7.85 µM	> 10 µM	> 10 µM	2.38 µM	3.88 µM	–	> 10 µM	2.83 µM	5.38 µM	–	–	–	–	–	–	–	–	–
COC(=O)c1cccc(C(=O)OC)c1	> 100 µM	–	> 100 µM	> 100 µM	> 100 µM	> 100 µM	> 100 µM	> 100 µM	–	> 100 µM	–	–	–	–	–	–	–	–	–
COc1cc2c(cc1Cl)n([O-])c(C#N)c(N1CCN(c3ccc([N+](=O)[O-])cc3)CC1)[n+]2=O	> 100 µM	8.29 µM	–	–	> 100 µM	> 62.8 µM	> 100 µM	> 100 µM	> 100 µM	> 100 µM	–	–	–	–	–	–	–	–	–
C=CCN(CC=C)CC(C(C)=O)C(c1ccccc1)c1c(O)c2ccccc2oc1=O (centres undefined)	> 100 µM	> 100 µM	> 100 µM	> 100 µM	> 100 µM	> 100 µM	> 100 µM	> 100 µM	–	> 100 µM	–	–	–	–	–	–	–	–	–
COc1nc2[nH]ccc2c(=O)n1C	> 100 µM	> 100 µM	> 100 µM	> 100 µM	> 100 µM	–	> 100 µM	> 100 µM	–	> 100 µM	–	–	–	–	–	–	–	–	–
COc1ccccc1NC(=O)CC(=O)NNCC(=O)Nc1nnc(-c2ccccc2)o1	> 100 µM	> 100 µM	> 100 µM	–	> 100 µM	> 100 µM	> 100 µM	> 100 µM	–	> 100 µM	–	–	–	–	–	–	–	–	–
